Several values for one entry are separate records, joined by “and”; a condition that tells them apart may be missing. Equal values may be shown once.
Tests used:
[1] = system: MDR-1; assay: MDR-1 (PGP) protein levels in probands upon induction by rifampicine, immunohistochemical detection; format: in vivo, human; settings: for PGP concentration, mean / PGP concentration: rifampicine-induced probands; for PGP concentration: individual probands
Experimental: The expression levels of MDR-1 in the colon and liver of these patients was also estimated by established immunohistochemical detection of the MDR-1 protein. In the proband population, in addition to measurements of the expression levels of MDR-1 in the colon, measurements of MDR-1 upon induction of the gene by rifampicine were performed. Also, the in vivo activity of MDR-1 under noninduced and rifampicine induced conditions was determined by measuring the blood concentrations of orally administered digoxin (1 mg), which is a known MDR-1 substrate and whose blood concentration also depends on the MDR-1 activity in the colon.

[2] = digoxin maximum plasma concentration (Cmax) at steady state after oral application, by MDR-1 exon 26 genotype; format: in vivo, human; settings: 7 T/T vs 7 C/C volunteers, T/T higher, p=0.006
Experimental: For a further validation of the correlation of MDR-1 genotype with intestinal digoxin uptake, additional volunteers of another clinical study at the University Medical Center, Charite in Berlin that addresses blood levels of digoxin after oral application (without rifampin induction and PGP protein determination, Johne et al. (1999), Clin.
In this study, maximum plasma concentrations (Cmax) were evaluated during steady state conditions of digoxin.

[3] = target: T1, MDR-1 (Homo sapiens, UniProt P08183); assay: clinical; set-up: from tissue; host or cells: colon (intestine) of human probands, in vivo; settings: in vivo, po, 1 mg, digoxin concentration in blood (Dig AUC)
T1 sequence (P08183 whole entry): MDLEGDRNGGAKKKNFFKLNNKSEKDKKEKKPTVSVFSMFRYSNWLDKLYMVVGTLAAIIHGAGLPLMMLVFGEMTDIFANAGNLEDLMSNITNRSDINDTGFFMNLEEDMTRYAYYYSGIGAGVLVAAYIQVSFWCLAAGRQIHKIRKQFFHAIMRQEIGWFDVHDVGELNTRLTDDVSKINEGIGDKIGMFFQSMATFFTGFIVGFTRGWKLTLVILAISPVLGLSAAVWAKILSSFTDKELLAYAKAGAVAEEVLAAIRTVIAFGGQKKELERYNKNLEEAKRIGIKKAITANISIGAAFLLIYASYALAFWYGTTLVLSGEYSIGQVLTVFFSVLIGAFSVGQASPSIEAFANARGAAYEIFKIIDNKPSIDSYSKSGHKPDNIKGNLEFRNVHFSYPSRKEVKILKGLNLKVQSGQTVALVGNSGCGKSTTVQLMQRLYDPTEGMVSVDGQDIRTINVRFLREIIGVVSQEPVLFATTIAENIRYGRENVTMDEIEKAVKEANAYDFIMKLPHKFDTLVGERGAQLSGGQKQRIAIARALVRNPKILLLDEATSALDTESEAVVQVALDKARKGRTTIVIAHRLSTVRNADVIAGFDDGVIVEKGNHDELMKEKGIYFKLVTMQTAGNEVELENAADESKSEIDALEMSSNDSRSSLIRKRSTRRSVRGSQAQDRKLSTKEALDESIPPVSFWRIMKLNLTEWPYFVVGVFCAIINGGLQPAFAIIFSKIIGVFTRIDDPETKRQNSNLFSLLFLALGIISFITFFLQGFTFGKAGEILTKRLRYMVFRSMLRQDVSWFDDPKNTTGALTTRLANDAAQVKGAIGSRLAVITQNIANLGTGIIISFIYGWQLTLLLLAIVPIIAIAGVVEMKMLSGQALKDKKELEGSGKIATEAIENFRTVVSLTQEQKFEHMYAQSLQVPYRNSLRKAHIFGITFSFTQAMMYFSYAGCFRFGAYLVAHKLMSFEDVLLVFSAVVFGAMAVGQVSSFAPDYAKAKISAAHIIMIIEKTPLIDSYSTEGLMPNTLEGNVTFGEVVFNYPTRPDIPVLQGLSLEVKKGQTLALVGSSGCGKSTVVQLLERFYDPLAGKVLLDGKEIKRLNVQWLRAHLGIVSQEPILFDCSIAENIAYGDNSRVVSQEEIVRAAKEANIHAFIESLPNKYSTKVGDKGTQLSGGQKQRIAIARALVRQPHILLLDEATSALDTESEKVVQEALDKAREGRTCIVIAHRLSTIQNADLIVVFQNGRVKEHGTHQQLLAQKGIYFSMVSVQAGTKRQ
Text: To identify potential direct correlations of MDR-1 polymorphisms with clinical relevant phenotypes in humans, probands from a study at the Dr. Margarete Fischer-Bosch-Institut for Clinical Pharmacology in Stuttgart, were subjected to the determination of MDR-1 polymorphisms as described in examples 2-4. The expression levels of MDR-1 in the colon and liver of these patients was also estimated by established immunohistochemical detection of the MDR-1 protein. In the proband population, in addition to measurements of the expression levels of MDR-1 in the colon, measurements of MDR-1 upon induction of the gene by rifampicine were performed. Also, the in vivo activity of MDR-1 under noninduced and rifampicine induced conditions was determined by measuring the blood concentrations of orally administered digoxin (1 mg), which is a known MDR-1 substrate and whose blood concentration also depends on the MDR-1 activity in the colon. The results of the MDR-1 measurements, rifampicine induction experiments and digoxin-experiments, as well as results from the MDR-1 polymorphism detection analysis in the proband population show correlations between MDR-1 gene expression and MDR-1 in vivo activity with certain polymorphisms. […]

[4] = target: T1, MDR-1; assay: clinical; set-up: The expression levels of MDR-1 in the colon and liver of these patients was also estimated by established immunohistochemical detection; from tissue; host or cells: colon (intestine) of human probands, in vivo; settings: in vivo
Text: To identify potential direct correlations of MDR-1 polymorphisms with clinical relevant phenotypes in humans, probands from a study at the Dr. Margarete Fischer-Bosch-Institut for Clinical Pharmacology in Stuttgart, were subjected to the determination of MDR-1 polymorphisms as described in examples 2-4. The expression levels of MDR-1 in the colon and liver of these patients was also estimated by established immunohistochemical detection of the MDR-1 protein. In the proband population, in addition to measurements of the expression levels of MDR-1 in the colon, measurements of MDR-1 upon induction of the gene by rifampicine were performed. Also, the in vivo activity of MDR-1 under noninduced and rifampicine induced conditions was determined by measuring the blood concentrations of orally administered digoxin (1 mg), which is a known MDR-1 substrate and whose blood concentration also depends on the MDR-1 activity in the colon. The results of the MDR-1 measurements, rifampicine induction experiments and digoxin-experiments, as well as results from the MDR-1 polymorphism detection analysis in the proband population show correlations between MDR-1 gene expression and MDR-1 in vivo activity with certain polymorphisms.
This was done by measuring the blood concentrations of orally administered digoxin which is a known MDR-1 substrate and whose blood concentration also depends on the MDR-1 activity in the colon. […] The probands that harbor the T allele (correlates with weaker MDR-1 expression, see Tab. 4), contain higher blood levels of digoxin compared to samples which have only the corresponding homozygous C-allele. […] This is totally consistent with the function of MDR-1 in the colon, i.e. re-transport and elimination of substrates from the uptaking cells into the lumen of the colon. […] The difference of the digoxin blood levels between these individuals was more than 4-fold.

[5] = Phenytoin blood levels in patients by 2C9/2C19 and MDR-1 exon 26 (C3435T) genotype; format: in vivo, human

SMILES: CO[C@H]1/C=C/O[C@@]2(C)Oc3c(C)c(O)c4c(O)c(c(/C=N/N5CCN(C)CC5)c(O)c4c3C2=O)NC(=O)/C(C)=C\C=C\[C@H](C)[C@H](O)[C@@H](C)[C@@H](O)[C@@H](C)[C@H](OC(C)=O)[C@@H]1C [rifampicine]
- highest rif-induced activity (PGP concentration) ([1]; proband homozygous C/C at position 176): 1264.9
- lowest rif-induced activity (PGP concentration) ([1]; proband homozygous T/T at position 176): 142.1
- difference of induced MDR-1 expression levels between homozygous C and homozygous T proband ([1]; rifampicin-induced, highest (C/C) vs lowest (T/T) proband): 9 fold
- PGP concentration, mean ([1]; T-allele absent (C/C only)): 924 relative units
- PGP concentration, mean ([1]; T-allele present (T/T and T/C)): 587 relative units
- PGP concentration ([1]; T-allele absent (C/C only)): 423 relative units and 1264 relative units and 1086 relative units
- PGP concentration ([1]; T-allele present (T/T and T/C) at position 176 in exon 26): 142 relative units and 1085 relative units and 520 relative units and 601 relative units

SMILES: C[C@H]1O[C@@H](O[C@H]2[C@@H](O)C[C@H](O[C@H]3[C@@H](O)C[C@H](O[C@H]4CC[C@@]5(C)[C@H](CC[C@@H]6[C@@H]5C[C@@H](O)[C@]5(C)[C@@H](C7=CC(=O)OC7)CC[C@]65O)C4)O[C@@H]3C)O[C@@H]2C)C[C@H](O)[C@@H]1O [digoxin]
- mean difference in digoxin Cmax between T/T and C/C groups [2]: 38%
- AUC [3]: 63.6 ng·h/mL
- difference of the digoxin blood levels between homozygous T and homozygous C proband [4]: more than 4 fold
- highest rif-induced dig blood level [4]: 12.3
- lowest rif-induced dig blood level [4]: 57.3

SMILES: O=C1NC(=O)C(c2ccccc2)(c2ccccc2)N1 [Phenytoin]
- highest blood concentration, increase compared to the normal population ([5]; 2C9 deficient patient with low PGP (T/T) genotype, within a group of 100 patients): about twofold
- Phenytoin blood levels ([5]; 2C9 normal metabolizers, MDR-1 genotype CC and CT (intestinal PGP high/medium)): normal
- Phenytoin blood levels ([5]; 2C9 normal metabolizers, MDR-1 genotype TT (intestinal PGP low)): normal
- Phenytoin blood levels ([5]; 2C9 weak and/or deficient metabolizers, MDR-1 genotype CC and CT (intestinal PGP high/medium)): high
- Phenytoin blood levels ([5]; 2C9 weak and/or deficient metabolizers, MDR-1 genotype TT (intestinal PGP low)): VERY HIGH
